Assay results as given in patent US8338404B2, “Composition and method for reducing allergen” (Kyowa Hakko Bio Co., Ltd., priority 2007, dated 2012).

Biological target: T1, mite allergen Derf2 (Dermatophagoides farinae, UniProt Q00855)
T1 construct: mite allergen Derf2 contained in standard house dust; from tissue; host or cells: standard house dust (natural mite allergen, not recombinant)
T1 sequence (Q00855 18-146): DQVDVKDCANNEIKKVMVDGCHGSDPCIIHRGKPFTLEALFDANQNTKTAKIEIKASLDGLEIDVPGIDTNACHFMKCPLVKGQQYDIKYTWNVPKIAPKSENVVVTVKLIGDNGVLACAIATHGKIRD
Test: Effects of processed fiber for reducing mite allergen (sandwich ELISA)
Type: biochemical
Settings: 5% treatment solution, 1 hour; for Mite allergen concentration: 1 ml mite allergen buffer
Description: At the outset, anti-Derf2 monoclonal antibody 15E11, which was diluted to 2 μg/ml in phosphate buffer (pH 7.4, containing 0.1% by weight of NaN3) was applied to the F16 Maxisorp Nunc-Immuno Module plate (NUNC) in amounts of 100 μl per well and subjected to sensitization at 4° C. for at least 1 day. After sensitization, the liquid was removed, a blocking reagent (1% by weight of bovine serum albumin and phosphate buffer (pH 7.2, containing 0.1% by weight of NaN3)) was added in amounts of 100 μl per well, and the reaction was allowed to proceed at 37° C. for 60 minutes. After the reaction, the plate was washed in phosphate buffer (pH 7.2, containing 0.1% by weight of polyoxyethylene (20) sorbitan monolaurate). Subsequently, the sample resulting from the reaction of mite allergens with the aforementioned solution was added dropwise thereto in amounts of 100 μl per well, and the reaction was allowed to proceed at 37° C. for 60 minutes.
After the reaction, the plate was washed in phosphate buffer (pH 7.2, containing 0.1% by weight of polyoxyethylene (20) sorbitan monolaurate). The peroxidase-labeled anti-Derf2 monoclonal antibody was dissolved to 200 μg/ml in distilled water, the resultant was diluted 1,000-fold with phosphate buffer (pH 7.2, containing 1% by weight of bovine serum albumin and 0.1% by weight of polyoxyethylene (20) sorbitan monolaurate), and the resulting solution was added in amounts of 100 μl per well. The reaction was allowed to proceed at 37° C. for 60 minutes, and the plate was first washed with phosphate buffer (pH 7.2, containing 0.1% by weight of polyoxyethylene (20) sorbitan monolaurate) and then with distilled water. Ortho-phenylenediamine dihydrochloride (26 mg tablet, Sigma Chemical Co.) and a hydrogen peroxide solution (13 μl) were added to 13 ml of 0.1 mol/l phosphate buffer (pH 6.2), the resultant was added in amounts of 100 μl per well, and the reaction was allowed to proceed at 37° C. for 5 minutes. Immediately thereafter, 50 μl each of 2 mol/l H2SO4 was introduced so as to terminate the reaction, and the absorbance (OD 490 nm) was assayed using a microplate spectrophotometer (Bio-Rad Laboratories Inc.)
The allergen-reducing fabric obtained in Example 8 was tested in terms of the effects of allergen reduction. As a control, a white cotton broadcloth and polyethylene terephthalate (PET) cloth were soaked via a padding method in an aqueous solution of 5% tannic acid (an equivalent of JP Patent Publication (kokai) No. 61-44821 A (1986)), the clothes were dried at 110° C. for 2 minutes, and the resultants were tested in terms of the effects of allergen reduction.
The clothes (5 cm×5 cm each) were introduced into reclosable plastic bags, 1 ml of phosphate buffer (pH 7.2) of mite allergen was added thereto, and the resultants were allowed to stand for 1 hour. The centrifuged samples were subjected to enzyme immunoassay (i.e., sandwich ELISA) in the same manner as in Test Example 1 to inspect the effects of reducing mite allergen Derf2.

[1] = PET cloth 5 cm×5 cm, not treated: 970 ng/ml
[2] = cotton broadcloth 5 cm×5 cm, not treated: 720 ng/ml

Row | Structure (SMILES) | Mite allergen concentration [1] | Reduction (PET cloth 5 cm×5 cm) | Mite allergen concentration [2] | Reduction (cotton broadcloth 5 cm×5 cm)
1 | CC(=O)N1C[C@H](O)C[C@H]1C(=O)O [N-acetyl-trans-4-hydroxy-L-proline] | 2.3 ng/mL | 99.8% | 3.5 ng/mL | 99.5%
2 | O=C(OC[C@H]1O[C@@H](OC(=O)c2cc(O)c(O)c(OC(=O)c3cc(O)c(O)c(O)c3)c2)[C@H](OC(=O)c2cc(O)c(O)c(OC(=O)c3cc(O)c(O)c(O)c3)c2)[C@@H](OC(=O)c2cc(O)c(O)c(OC(=O)c3cc(O)c(O)c(O)c3)c2)[C@@H]1OC(=O)c1cc(O)c(O)c(OC(=O)c2cc(O)c(O)c(O)c2)c1)c1cc(O)c(O)c(OC(=O)c2cc(O)c(O)c(O)c2)c1 [tannic acid] | 190 ng/mL | 80% | 120 ng/mL | 83%
